Read-outs that look alike come from different tables or passages of the source.
What was measured:
cyclooxygenase 1 = cyclooxygenase 1 (Homo sapiens, UniProt P23219); assay: direct inhibition of cyclooxygenase 1; details: at concentrations used in the current study
C2Cl2 Muscle Cells [1] = assay: accumulation (loading) of creatine in C2Cl2 muscle cells; format: cell-based, mouse; details: 3.2 mg/ml, up to 1 hour at 37 C
From the text: (§1) Over this time period it was observed that here is a significant, approximately two-fold, increase in the “loading” of CEE in the muscle cells versus CM loading. FIGS. 13 through 15 exemplify the effects of this increased loading of CEE in the C2Cl2 cells under normal and hypoxic conditions. FIGS. 13 through 15 illustrate the results of studies of lactic acid levels in and lactic acid release from C2Cl2 muscle cells. […] The results were gathered over a six hour period of time.

C2Cl2 Muscle Cells [2] = assay: lactic acid levels in and release from C2Cl2 muscle cells under normal and hypoxic conditions; format: cell-based, mouse; details: 100 uM, six hour period
From the text: as §1

cyclooxygenase 2 = molecular target: T1, cyclooxygenase 2 (Homo sapiens, UniProt P35354); assay: direct inhibition of cyclooxygenase 2; details: at concentrations used in the current study
T1 sequence (P35354 18-604): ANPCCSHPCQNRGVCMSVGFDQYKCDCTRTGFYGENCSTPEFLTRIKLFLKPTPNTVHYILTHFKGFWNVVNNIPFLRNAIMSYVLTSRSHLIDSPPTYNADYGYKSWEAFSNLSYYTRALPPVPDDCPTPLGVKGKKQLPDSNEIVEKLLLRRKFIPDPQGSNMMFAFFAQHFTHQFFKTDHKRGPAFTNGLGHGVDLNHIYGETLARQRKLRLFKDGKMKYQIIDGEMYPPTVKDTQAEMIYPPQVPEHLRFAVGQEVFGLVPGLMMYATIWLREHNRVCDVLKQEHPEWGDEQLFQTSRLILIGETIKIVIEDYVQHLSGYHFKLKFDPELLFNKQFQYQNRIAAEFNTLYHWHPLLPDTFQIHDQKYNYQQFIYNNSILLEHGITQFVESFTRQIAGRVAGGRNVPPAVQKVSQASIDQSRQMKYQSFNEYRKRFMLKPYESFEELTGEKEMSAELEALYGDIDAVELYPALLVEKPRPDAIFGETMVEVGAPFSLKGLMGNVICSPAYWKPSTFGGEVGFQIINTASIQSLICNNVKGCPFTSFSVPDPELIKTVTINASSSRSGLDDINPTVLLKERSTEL

[3] = test system: brain microvessel endothelial cells (BMEC); assay: prostaglandin E2 release from BMEC monolayers exposed to bacterial lipopolysaccharide; format: cell-based
From the text: In an exemplary study primary cultured brain microvessel endothelial cells (BMEC) were used as an in vitro cell culture model to examine inflammation. These cells have been used previously to examine the effects of the inflammatory mediators such as tumor necrosis factor (TNF), and bacterial lipopolysaccharide (LPS). See Mark, K. S. and Miller, D. W. increased Permeability of Prim my Cultured Brain Microvessel Endothelial Cell Monolayers Following Tumor Necrosis Factor-Alpha Exposure. Life Sci. 64: 1941-1953, 1999, which is herein incorporated by reference in its entirety. See also Mark, K. S., Trickier, W. J., and Miller, D. W. Role of Cyclooxygenase-2 and Prostaglandins in the TNF-a Induced Changes in Brain Microvessel Endothelial Cell Permeability. J. Pharmacol. Exp. Ther. 297: I 051-1058, 200 I, which is herein incorporated by reference in its entirety. See also McGuire, T. R., Hoie, E., Trickier, […]., and Miller, D. W. Release of Prostaglandin E-2 in Bovine Brain Endothelial Cells After Exposure to Three Unique Forms of the Antifuingal Drug Amphotericin: Role of COX-2 in Amphotericin-Induced Fever. Life Sci. (accepted for publication), which is herein incorporated by reference in its entirety. These studies indicate that following exposure to either tumor necrosis factor (TNF) or bacterial lipopolysaccharide (LPS), there is an increased expression of cyclooxygenase 2 (COX 2). […] Treatment with bacterial lipopolysaccharide (LPS) alone caused significant increases in prostaglandin E2 (PGE2) release from the cells over the 12 hour exposure period (approximately 1a-fold increase over control).

MDCK monolayers [4] = details: dog, 1 h
MDCK monolayers [5] = assay: permeability (flux) across MDCK monolayers; details: over one hour
[6] = test system: inflammatory responses produced by carrageenan, 5-hydroxytryptamine, nystatin and formaldehyde; details: oral; cited from earlier work
[7] = of the administered dose; cited from earlier work
[8] = gastric pH range of 1-2; cited from earlier work

Sequence of cyclooxygenase 1 (P23219 24-599, species assumed): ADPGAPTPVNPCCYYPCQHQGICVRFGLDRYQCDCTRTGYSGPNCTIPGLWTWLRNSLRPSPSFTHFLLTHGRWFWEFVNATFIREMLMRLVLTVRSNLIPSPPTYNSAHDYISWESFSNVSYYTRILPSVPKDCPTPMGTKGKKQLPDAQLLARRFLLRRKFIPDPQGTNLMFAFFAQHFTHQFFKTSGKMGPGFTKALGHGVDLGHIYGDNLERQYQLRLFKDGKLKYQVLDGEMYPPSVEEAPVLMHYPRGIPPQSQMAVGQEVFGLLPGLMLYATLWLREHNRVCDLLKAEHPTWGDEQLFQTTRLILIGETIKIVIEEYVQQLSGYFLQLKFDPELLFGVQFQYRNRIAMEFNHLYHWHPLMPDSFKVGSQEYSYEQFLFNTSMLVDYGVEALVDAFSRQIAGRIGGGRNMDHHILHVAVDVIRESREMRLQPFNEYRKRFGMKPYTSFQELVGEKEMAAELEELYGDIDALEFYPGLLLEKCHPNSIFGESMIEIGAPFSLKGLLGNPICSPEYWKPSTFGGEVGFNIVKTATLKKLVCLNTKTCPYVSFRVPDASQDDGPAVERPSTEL

CCOC(=O)CN(C)C(=N)N [creatine ethyl ester]
direct inhibition of cyclooxygenase 1 (cyclooxygenase 1): have not presently revealed an inhibition | increase in loading in muscle cells versus CM loading (C2Cl2 Muscle Cells [1]): approximately two-fold | cellular lactic acid levels (C2Cl2 Muscle Cells [2]): marked reduction | lactic acid release (C2Cl2 Muscle Cells [2]): marked reduction | direct inhibition of cyclooxygenase 2 (cyclooxygenase 2): have not presently revealed an inhibition | magnitude of PGE2 response compared with indomethacin (10 μM) ([3]; 100 μM): similar | flux across MDCK monolayer (MDCK monolayers [4]): approximately 20%

CCOC(=O)CN(C)C(=N)N.Cl [creatine ethyl ester hydrochloride, Creatine Ethyl Ester Hydrochloride]
concentration giving maximal reduction in PGE2 release ([3]; LPS 20 ng/ml, 12 hour exposure): 100 µM | lowest concentration with reduction in PGE2 release ([3]; LPS 20 ng/ml, 12 hour exposure): 10 µM | effect on prostaglandin E2 (PGE2) release following LPS exposure ([3]; LPS 20 ng/ml, 12 hour exposure, co-administration): significantly reduced

CN(CC(=O)O)C(=N)N [creatine monohydrate]
direct inhibition of cyclooxygenase 1 (cyclooxygenase 1; monohydrate): have not presently revealed an inhibition | direct inhibition of cyclooxygenase 2 (cyclooxygenase 2; monohydrate): have not presently revealed an inhibition | magnitude of PGE2 response compared with indomethacin (10 μM) ([3]; 1000 μM): similar | concentration giving maximal reduction in PGE2 release ([3]; LPS 20 ng/ml, 12 hour exposure): at least 1000 μM | lowest concentration with reduction in PGE2 release ([3]; LPS 20 ng/ml, 12 hour exposure): 100 µM | flux across MDCK monolayer (MDCK monolayers [5]): approximately 10%

CN(CC(=O)O)C(=N)N [creatine]
suppression of experimentally induced inflammatory responses [6]: orally effective | direct inhibition of cyclooxygenase 1 (cyclooxygenase 1): does not inhibit | total estimated oral absorption [7]: ≤ 14% | Partition (partition coefficient): 0.015 +/− 0.007 | direct inhibition of cyclooxygenase 2 (cyclooxygenase 2): does not inhibit | creatinine/creatine ratio [8]: greater than or equal to 30

— patent US10206897B2 (Board of Regents of the University of Nebraska, priority 2000, dated 2019)
